This is an account of results in patent US9192619B2 (Peking University Third Hospital, priority 2010, dated 2015).

This assay has as its system permanent focal cerebral ischemia model (MCAO). The experiment in a line: Permanent focal cerebral ischemia model by middle cerebral artery occlusion (MCAO), infarction size by TTC staining of brain slices. The format is in vivo, Sprague Dawley rats. Conditions: single rats, 12 h ischemia. On the procedure: Experimental conditions: Sprague Dawley rats weighing about 250-300 g with a brain tissue volume of 1.5 mL were used. The subjects were divided into eight groups, and each group had eight rats. […] Efficacy validation: two hours after ECS administration and one hour after intraperitoneal injection, a permanent focal cerebral ischemia model was made by middle cerebral artery occlusion (MCAO). The brains of rats from each group were removed 12 hours after cerebral ischemia. The brain slices were obtained by cutting the brain at every 2 mm (5 slices from each rat). Then the slices were stained with 2,3,5-triphenyl-2H-tetrazolium chloride (TTC) for evaluating the cerebral infarction size and the effectiveness of administration of the drug via ECS.

Values joined by “and” are separate entries in the source; they are usually repeats but may differ in a detail not shown here. Equal entries are not always repeated.

`C[N+](C)(C)CCOP(=O)(O)OP(=O)([O-])OC[C@H]1O[C@@H](n2ccc(N)nc2=O)[C@H](O)[C@@H]1O` [CDPC, citicoline]: the Infarction percentages runs as follows: (CDPC 25 mM via brain ECS (caudate nucleus), 0.2 μL/min, 2 μL, MCAO 2 h after administration) 33.7% and 5.6% and 18.6% and 34.1% and 38.1% and 42% and 24.9% and 22.8%; (CDPC 40 mM via brain ECS, 0.2 μL/min, 2 μL, MCAO 2 h after administration) 2.3% and 6.7% and 2.2% and 2.9% and 6.9% and 3.6% (2×) and 5.3%; (CDPC 50 mM via brain ECS, 0.2 μL/min, 2 μL, MCAO 2 h after administration) 1.3% and 5.7% and 3% and 1.7% and 3.7% and 4.8% and 5% and 7.3%; (CDPC 60 mM via brain ECS, 0.2 μL/min, 2 μL, MCAO 2 h after administration) 2.3% and 3.7% and 3.6% and 1.7% and 6.7% and 8.8% and 3.5% and 4.2%; (CDPC 75 mM via brain ECS, 0.2 μL/min, 2 μL, MCAO 2 h after administration) 31.2% and 35.8% and 4.0% and 37.8% and 16.1% and 29.8%; (CDPC 100 mM via brain ECS, 0.2 μL/min, 2 μL, MCAO 2 h after administration) 29.1% and 35.9% and 20.7% and 8.1% and 38.8% and 20.6% and 11.5% and 41.6%. Besides, the Infarction percentages is 24.8% and 51.2% and 14.8% and 20% and 26.7% and 18.1% and 48.3% and 33.4% (CDPC 245 mM via brain ECS, 0.2 μL/min, 2 μL, MCAO 2 h after administration); 30.6% and 26.4% and 10.7% and 5.2% and 25.5% and 27.0% and 33.9% and 32.3% (CDPC 1000 mM intraperitoneal, 1 mL (about 4 mL/kg), 1 mL/min, MCAO 1 h after administration).
